Laboratory results as given in ChEMBL document CHEMBL1158343, “Synthesis, antimicrobial and antiviral evaluation of substituted imidazole derivatives” (Eur J Med Chem, 2009).
Values after ≈ are worked out from the molar mass of the structure shown.

Each compound was assayed on Vaccinia virus (assay: Antiviral activity against Vaccinia virus infected in human HEL cells assessed as reduction in virus-induced cytopathogenicity after 3 days). Settings: Orthopoxvirus vaccinia, 72 h.
Type: functional, organism-based

Row | SMILES | EC50 [µg/mL]
1 | O=C(c1ccc([N+](=O)[O-])cc1)n1ccnc1-c1ccccc1[N+](=O)[O-] | > 100
2 | O=C(c1ccccc1Br)n1ccnc1-c1ccccc1[N+](=O)[O-] | > 100
3 | O=C(c1ccccc1Br)n1ccnc1-c1ccc([N+](=O)[O-])cc1 | > 100
4 | O=C(O)c1ccccc1-c1nccn1C(=O)c1ccc([N+](=O)[O-])cc1 | > 100
5 | O=C(c1ccc([N+](=O)[O-])cc1)n1ccnc1-c1ccc([N+](=O)[O-])cc1 | 4 (≈ 11.8 µM)
6 | O=C(c1ccc([N+](=O)[O-])cc1)n1ccnc1-c1ccc(Cl)cc1 | 2 (≈ 6.1 µM)
7 | O=C(c1ccc([N+](=O)[O-])cc1)n1ccnc1-c1ccccc1Cl | > 100
8 | COc1ccc(-c2nccn2C(=O)c2ccc([N+](=O)[O-])cc2)cc1 | > 100
9 | O=C(c1ccccc1Br)n1ccnc1-c1ccccc1Cl | > 100
10 | O=C(c1ccc([N+](=O)[O-])cc1)n1ccnc1-c1cccc(Cl)c1 | 45 (≈ 137 µM)
11 | O=C(c1ccccc1Br)n1ccnc1-c1cccc([N+](=O)[O-])c1 | > 100
12 | COc1ccc(-c2nccn2C(=O)c2ccccc2Br)cc1 | > 100
13 | O=C(c1ccc([N+](=O)[O-])cc1)n1ccnc1-c1cccc([N+](=O)[O-])c1 | > 100
14 | O=C(c1ccccc1Br)n1ccnc1-c1ccc(Cl)cc1 | > 100
15 | O=c1[nH]c(=O)n([C@H]2C[C@H](O)[C@@H](CO)O2)cc1/C=C/Br [BRIVUDINE] | 5 (≈ 15 µM)
16 | Nc1ccn(C[C@@H](CO)OCP(=O)(O)O)c(=O)n1.O.O [CIDOFOVIR] | 7
17 | Nc1nc2c(ncn2COC(CO)CO)c(=O)[nH]1 [GANCICLOVIR] | > 100
18 | NC(=O)c1ncn([C@@H]2O[C@H](CO)[C@@H](O)[C@H]2O)n1 [RIBAVIRIN] | > 250
